From US8124834B2, “Use of active cytokinin synthase gene” (Riken, priority 2006, dated 2012)

Tests used:
LOG protein [1] = target: T1, LOG protein (Oryza sativa subsp. japonica, UniProt Q5ZC82); assay: Detection of enzyme activity of recombinant LOG protein with cytokinin substrates (HPLC); format: biochemical; design: the protein coding region of the LOG gene cDNA was inserted into pCOLD-I (TaKaRa), a His-tag protein expression vector; made in house; host or cells: E. coli BL21(DE3)[pG-Tf2]; details: 3 μg LOG protein, 50 μM substrate, pH7, 30° C., 2 hours, HPLC absorption at 270 nm
T1 sequence (Q5ZC82 1-242): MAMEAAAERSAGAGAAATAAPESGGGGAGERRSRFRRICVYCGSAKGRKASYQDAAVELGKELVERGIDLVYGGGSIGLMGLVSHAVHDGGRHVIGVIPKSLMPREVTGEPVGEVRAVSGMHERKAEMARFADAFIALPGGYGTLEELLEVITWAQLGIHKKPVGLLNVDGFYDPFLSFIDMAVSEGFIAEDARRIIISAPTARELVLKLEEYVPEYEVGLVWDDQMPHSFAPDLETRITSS
Experimental: The following 8 types of cytokinin substrates were used: N^6-(delta-2-isopentenyl)adenine (iP), trans-zeatin (tZ), cis-zeatin (cZ), iP riboside (iPR), tZ riboside (tZR), cZ riboside (cZR), iPR 5′-monophosphate (iPRMP), and tZR 5′-monophosphate (tZRMP). As reaction conditions, 100 μl of a reaction solution containing 50 mM Tris-HCl, 1 mM MgCl2, and a 50 μM substrate, pH7 was incubated at 30° C. for 2 hours. Thereafter, 10 μl of 20% acetic acid was added to the reaction solution to terminate the reaction, and the reaction solution was then centrifuged at 15,000 rpm at a room temperature for 20 minutes. […] For elution, solvent C (100% acetonitrile) and solvent D (2% acetic acid) were used.

LOG protein [2] = target: T1, LOG protein; assay: Substrate specificity of LOG protein to nucleotide cytokinin forms and AMP; format: biochemical; design: the protein coding region of the LOG gene cDNA was inserted into pCOLD-I (TaKaRa), a His-tag protein expression vector; made in house; host or cells: E. coli BL21(DE3)[pG-Tf2]; details: 0.02 μg LOG protein, 100 μM substrate, pH 6.5, 4 minutes (iPRDP, iPRTP: 0.01 μg, 2 minutes)
Experimental: The reaction specificity of the LOG protein to a nucleotide cytokinin form was analyzed. […] The following 7 types of substrates were used: iPRMP, tZRMP, dihydrozeatin riboside 5′-monophosphate (DZRMP), cZR 5′-monophosphate (cZRMP), iPR 5′-diphosphate (iPRDP), iPR 5′-triphosphate (iPRTP), and AMP. The reaction conditions are as follows. 0.02 μg of the LOG protein was used for a single reaction, and it was reacted with a 100 μM substrate in 200 μl of a reaction solution containing 50 mM Tris-HCl, 1 mM MgCl2, 1 mM DTT, pH 6.5. Thereafter, 0 minute and 4 minutes after initiation of the reaction, 600 μl of cold acetone was added to the reaction solution to terminate the reaction. The reaction solution was left at rest at −80° C. for 30 minutes, and it was then centrifuged at 15,000 rpm for 20 minutes. Thereafter, a supernatant was dried using a centrifugal thickener. […] Only the injection amount was changed to 50 μl. In the case of iPRDP and iPRTP, the amount of a reaction solution was determined to be 100 μl, the mass of a protein used was determined to be 0.01 μg, and the reaction time was determined to be 2 minutes.

LOG protein [3] = target: T1, LOG protein; assay: Measurement of Km value of LOG protein to iPRMP and tZRMP; format: biochemical; design: the protein coding region of the LOG gene cDNA was inserted into pCOLD-I (TaKaRa), a His-tag protein expression vector; made in house; host or cells: E. coli BL21(DE3)[pG-Tf2]; details: 0.02 μg LOG protein
Experimental: (§1) In order to obtain the Km value of the LOG protein to typical substrates iPRMP and tZRMP, the following experiment was carried out. 0.02 μg of LOG protein was used for a single reaction, and it was reacted with a substrate in a substrate concentration of each of 5, 8, 15, 30 and 100 μM in 200 μl of a reaction solution containing 50 mM Tris-HCl, 1 mM MgCl2, 1 mM DTT, pH 6.5. Thereafter, 0 minute, 2 minutes and 4 minutes after initiation of the reaction, 600 μl of cold acetone was added to the reaction solution to terminate the reaction. The reaction solution was left at rest at −80° C. for 30 minutes, and it was then centrifuged at 15,000 rpm for 20 minutes. Thereafter, a supernatant was dried using a centrifugal thickener. The resultant was dissolved in 100 μl of 2% acetic acid, and a reaction product was then detected and quantified under the same conditions as those for the liquid chromatography of Example 2. Only the injection amount was changed to 50 μl. The aforementioned experiment was carried out three times, and the Km value was calculated.

[4] = Enzyme properties of AtLOG 1, 2, 3, 4, 5, 7 and 8 proteins having iPRMP as substrate; format: biochemical, Arabidopsis thaliana
Experimental: as §1
The enzyme activity of each of the purified AtLOG proteins was evaluated under the same reaction conditions as those of Example 2. […] In addition, the enzyme property of each AtLOG protein to iPRMP was determined in the same manner as in Example 5 (Table 4). In Table 4, the Km, Vmax and Kcat values were calculated based on a reaction under the optimal pH condition of each AtLOG protein.

Molecule | reactivity of the substrate with recombinant LOG protein (conversion to base form) (LOG protein [1]) | Optimal pH [4] | also measured
C/C(=C\CNc1ncnc2c1ncn2[C@@H]1O[C@H](COP(=O)(O)O)[C@@H](O)[C@H]1O)CO (relative stereo) [tZRMP, trans-zeatin riboside 5′-monophosphate] | completely converted |  | reactivity of LOG protein to the substrate (substrate specificity) (LOG protein [2]): uses as a substrate; Km (LOG protein [3]; substrate 5, 8, 15, 30 and 100 μM, pH 6.5, experiment carried out three times): 22 ± 3.6 µM; specific activity of the LOG protein (LOG protein [3]; substrate 5-100 μM, pH 6.5): 4.2 μmol/min^−1/mg^−1 protein
CC(CO)CCNc1ncnc2c1ncn2C1OC(COP(=O)(O)O)C(O)C1O (stereo not shown) [DZRMP, dihydrozeatin riboside 5′-monophosphate] |  |  | reactivity of LOG protein to the substrate (substrate specificity) (LOG protein [2]): uses as a substrate
C/C(=C/CNc1ncnc2nc[nH]c12)CO [cZ, cis-zeatin] | no reactivity |  | 
C/C(=C/CNc1ncnc2c1ncn2[C@@H]1O[C@H](CO)[C@@H](O)[C@H]1O)CO [cZR, cZ riboside] | no reactivity |  | 
CC(C)=CCNc1ncnc2nc[nH]c12 [iP, N^6-(delta-2-isopentenyl)adenine] | no reactivity |  | 
CC(C)=CCNc1ncnc2c1ncn2[C@@H]1O[C@H](CO)[C@@H](O)[C@H]1O [iPR, iP riboside] | no reactivity |  | 
C/C(=C\CNc1ncnc2nc[nH]c12)CO [tZ, trans-zeatin] | no reactivity |  | 
C/C(=C\CNc1ncnc2c1ncn2[C@@H]1O[C@H](CO)[C@@H](O)[C@H]1O)CO [tZR, tZ riboside] | no reactivity |  | 
cis-zeatin riboside 5′-monophosphate [cZRMP] |  |  | reactivity of LOG protein to the substrate (substrate specificity) (LOG protein [2]): uses as a substrate
AtLOG4: Arabidopsis thaliana LOG homolog protein, gene At3g53450, amino acid sequence SEQ ID NO: 10, purified from E. coli (protein, listed as Arabidopsis sp.) MEVNNETMQKSKFGRICVFCGSSQGKKSSYQDAAVDLGNELVLRNIDLVYGGGSIGLMGLVSQAVHDGGRHVIGVIPKTLMPRELTGETVGEVRAVADMHQRKAEMARHSDAFIALPGGYGTLEELLEVITWAQLGIHDKPVGLLNVDGYYNSLLSFIDKAVEEGFISTNARQIIISAPTAKELVKKLEEYSPCHESVATKLCWEIERIDYSSED |  | 6.5 pH | 
AtLOG5: Arabidopsis thaliana LOG homolog protein, gene At4g35190, amino acid sequence SEQ ID NO: 12, purified from E. coli (protein, listed as Arabidopsis sp.) MEIVKSRFKRVCVFCGSSSGKRECYSDAATDLAQELVTRRLNLVYGGGSIGLMGLVSQAVHEAGGHVLGIIPRTLMDKEITGETYGEVIAVADMHERKAEMARHSDCFIALPGGYGTLEELLEVIAWAQLGIHDKPVGLLNVDGYYNYLLTFIDKAVDDGFIKPSQRHIFVSAPNAKELVQKLEAYKPVNDGVIAKSRWEVEKKVQQPQQQQQVVFCSNTSMQTEIAL |  | 5.4 pH | 
AtLOG1: Arabidopsis thaliana LOG homolog protein, gene At2g28305, amino acid sequence SEQ ID NO: 4, purified from E. coli (protein, listed as Arabidopsis sp.) MEIESKFKRICVFCGSSAGNKVSYKDAAIELGTELVSRNIDLVYGGGSIGLMGLISQAVFNGGRHVIGVIPKTLMPREITGETVGEVKAVADMHQRKAEMAKHSDAFIALPGGYGTLEELLEVITWAQLGIHDKPVGLLNVEGYYNSLLSFIDKAVEEGFISPTARHIIVSAPSAKELVKKLEDYVPRHEKVASKKSWEMEQIGLSPTCEISR |  | 6.5 pH | 
AtLOG7: Arabidopsis thaliana LOG homolog protein, gene At5g06300, amino acid sequence SEQ ID NO: 14, purified from E. coli (protein, listed as Arabidopsis sp.) MEETKSRFKRICVFCGSSSGKKPSYQEAAIQLGNELVERRIDLVYGGGSVGLMGLVSQAVHHGGRHVLGVIPKTLMPREITGETIGEVKAVADMHQRKAEMARQADAFIALPGGYGTLEELLEVITWAQLGIHRKPVGLLNVDGYYNSLLTFIDKAVDEGFISPMARRIIVSAPNAKELVRQLEEYEPEFDEITSKLVWDEVDRISYVPGSEVATAT |  | 6.5 pH | 
AtLOG3: Arabidopsis thaliana LOG homolog protein, gene At2g37210, amino acid sequence SEQ ID NO: 8, purified from E. coli (protein, listed as Arabidopsis sp.) MEIKGESMQKSKFRRICVFCGSSQGKKSSYQDAAVDLGNELVSRNIDLVYGGGSIGLMGLVSQAVHDGGRHVIGIIPKTLMPRELTGETVGEVRAVADMHQRKAEMAKHSDAFIALPGGYGTLEELLEVITWAQLGIHDKPVGLLNVDGYYNSLLSFIDKAVEEGFISPTAREIIVSAPTAKELVKKLEEYAPCHERVATKLCWEMERIGYSSEE |  | 6.5 pH | 
AtLOG8: Arabidopsis thaliana LOG homolog protein, gene At5g11950, amino acid sequence SEQ ID NO: 16, purified from E. coli (protein, listed as Arabidopsis sp.) MEDNQRSRFRKICVFCGSHSGHREVFSDAAIELGNELVKRKIDLVYGGGSVGLMGLISRRVYEGGLHVLGIIPKALMPIEISGETVGDVRVVADMHERKAAMAQEAEAFIALPGGYGTMEELLEMITWSQLGIHKKTVGLLNVDGYYNNLLALFDTGVEEGFIKPGARNIVVSAPTAKELMEKMEEYTPSHMHVASHESWKVEELGDYPGQENKPQ |  | 7.0 pH | 
AtLOG2: Arabidopsis thaliana LOG homolog protein, gene At2g35990, amino acid sequence SEQ ID NO: 6, purified from E. coli (protein, listed as Arabidopsis sp.) MEETKSRFRRICVFCGSSSGNKTTYHDAALQLAHQLVERNIDLVYGGGSVGLMGLISQAVHDGGRHVLGIIPKSLAPREITGESIGEVITVSTMHQRKAEMGRQADAFIALPGGYGTFEELLEVITWSQLGIHTKPVGLLNVDGFYDSLLTFIDKAVDEGFVSSTARRIIVSAPNAPQLLQLLEEYVPKHDDFVSKMVWDNTTDAFTLEGDSF |  | 6.5 pH | 
